The values below come from patent US20140248342A1, “Fe(III) 2,4-Dioxo-1-Carbonyl Complexes For Treatment And Prophylaxis Of Iron Deficiency Symptoms And Iron Deficiency Anaemias” (Vifor (International) AG, priority 2011, published 2014).

Series [1] deals with Sprague-Dawley rats. Particulars: cited from earlier work; for toxicity in animal studies (in words): literature report London, Smith 1983.
Series [2] deals with Male NMRI (SPF) mice fed a low-iron diet. Description: Iron utilization in mouse model (low-iron diet, hemoglobin and body weight increase). The series is classed as in vivo. Particulars: stomach tube, 2 mg iron/kg body weight/day, days 1-5 and 8-12; utilization on day 15 calculated from hemoglobin and body weight increase. As to the method:
The excellent Fe utilizations that can be accomplished through the Fe complexes according to the invention were measured by means of the following mouse model.
Male NMRI (SPF) mice (approximately 3 weeks old) were fed a low-iron diet (approx. 5 ppm iron) for approximately 3 weeks. The iron complexes were then administered to them by means of a stomach tube (2 mg iron/kg body weight/day) 2 times a day for 5 days, with an interruption of 2 days (days 1-5 and 8-12). Utilization on day 15 was calculated from the hemoglobin increase and the body weight increase in accordance with the formula
0.07=Factor for 70 ml blood per kg body weight (BW)
Hb1=Hemoglobin level (g/l) on day 1 Hb2(3)=Hemoglobin level (g/l) on day 8 (or 15) BW4=body weight (g) on day 1 BW9(14)=body weight (g) on day 8 (or 15) Hb1 Control=average hemoglobin level (g/l) on day 1 in the control group, Hb2(3) Control=average hemoglobin level (g/l) on day 8 (or 15) in the control group, BW4 Control=average body weight (g) on day 1 in the control group, BW9(14) Control=average body weight (g) on day 8 (or 15) in the control group, Fe Dos.=entire administered iron (mg Fe) over 5 or 10 days,
Δ Utilization=Fe tot. utilized (examined group)−Fe ut. Control group, utilized from food, (mg Fe)

The test system of series [3] is Sprague-Dawley rats. As to the kind of experiment: Toxicity compared with Fe(acac)3: oral administration, single dose, observation until 24 h. The series is classed as in vivo. The following applies: for Number of dead animals after 24 h / animals still alive after 24 hours: 6 Sprague-Dawley rats; for toxicological findings after 24 hours: Sprague-Dawley rats. From the text:
The toxicity of the novel iron complex compounds was compared with that of tris(acetylacetonate)iron.

Like-named read-outs stand apart in the source and are kept apart here.

As to `CC(=O)/C=C(/C)[O-].CC(=O)/C=C(/C)[O-].CC(=O)/C=C(/C)[O-].[Fe+3]` [Fe(Acac)3, tris(acetylacetonate)iron], the “toxicity in animal studies (in words)” value in the series on Sprague-Dawley rats [1] is “highly toxic”; in the series with Sprague-Dawley rats [1] (listed as iron(III)-(acetylacetonate)3), “very toxic”. Also, in the series on Sprague-Dawley rats [1] (single oral dose 1000 mg/kg iron complex (160 mg/kg iron), 10 animals, Lit. 1), the “Number of dead animals after 24 h” value was 6. “Tris-(1-(morpholin-4-yl)pentane-1,2,4-trione)-iron(III)-complex [Example 12]”: the “Utilization n 15 d (abs. %)” value in series [2] was 75 abs. %.

For “Tris-(2,4-dioxopentanamide)-iron(III)-complex [Example 3]”, the “Utilization n 15 d (abs. %)” value in series [2] is listed as 82 abs. %. Moreover, the “Number of dead animals after 24 h” value in the series on Sprague-Dawley rats [3] (single oral dose 1400 mg/kg iron complex (170 mg/kg iron)) is given as 0. For the same molecule, in the series on Sprague-Dawley rats [3] (single oral dose 1400 mg/kg), the “animals still alive after 24 hours” value is 6 and the “toxicological findings after 24 hours” value is “absolutely no toxicological findings”. “Tris-(5-methyl-1-(morpholin-4-yl)hexane-1,2,4-trione)-iron(III)-complex [Example 11]”: in series [2], the “Utilization n 15 d (abs. %)” value is 51 abs. %. Still for that read-out and setting: as for “Tris-(N,N,5,5-tetramethyl-2,4-dioxohexanamide)-iron(III)-complex [Example 8]”, the figure is 72 abs. %; as for “Tris-(N,N,5,-trimethyl-2,4-dioxohexanamid)-iron(III)-complex [Example 9]”, 89 abs. %. For “Tris-(ethyl 2,4-dioxopentanoate)-iron(III)-complex [Example 1]”, the “Utilization n 15 d (abs. %)” value in series [2] was 106 abs. %. The “Number of dead animals after 24 h” value in the series with Sprague-Dawley rats [3] (single oral dose 1600 mg/kg iron complex (170 mg/kg iron)) turned out to be 0. Also, in the series on Sprague-Dawley rats [3] (single oral dose 1600 mg/kg), the “animals still alive after 24 hours” value is 6 and the “toxicological findings after 24 hours” value was “absolutely no toxicological findings”. Turning to “Tris-(ethyl oxo(2-oxocyclohexyl)acetate)-iron(III)-complex [Example 6]”, the “Utilization n 15 d (abs. %)” value in series [2] is listed as 65 abs. %. Still for that read-out and setting: then “Tris-(ethyl oxo(2-oxocyclopentyl)acetate)-iron(III)-complex [Example 5]”, with 59 abs. %. With “Tris-(methyl 2,4-dioxopentanoate)-iron(III)-complex [Example 2]”, in series [2], the “Utilization n 15 d (abs. %)” value is on record as 94 abs. %.
